Data: patent publication US8106055B2, “Substituted amide compounds” (Gruenenthal GmbH, priority 2007, dated 2012)

Tests used:
human μ opiate receptor = biological target: T1, human μ opiate receptor (Homo sapiens, UniProt P35372); assay: Affinity for the human μ opiate receptor ([3H]-naloxone displacement, CHO-K1 receptor membrane preparation, SPA); type: binding; settings: test concentration of 1 μM; for inhibition at 1 µM: read-out: μ (binding on the μ opioid receptor, % inhibition)
T1 construct: purchased PerkinElmer Life Sciences, Zaventem, Belgium RB-HOM; host or cells: CHO-K1 cells (membrane preparation)
T1 sequence (P35372 whole entry): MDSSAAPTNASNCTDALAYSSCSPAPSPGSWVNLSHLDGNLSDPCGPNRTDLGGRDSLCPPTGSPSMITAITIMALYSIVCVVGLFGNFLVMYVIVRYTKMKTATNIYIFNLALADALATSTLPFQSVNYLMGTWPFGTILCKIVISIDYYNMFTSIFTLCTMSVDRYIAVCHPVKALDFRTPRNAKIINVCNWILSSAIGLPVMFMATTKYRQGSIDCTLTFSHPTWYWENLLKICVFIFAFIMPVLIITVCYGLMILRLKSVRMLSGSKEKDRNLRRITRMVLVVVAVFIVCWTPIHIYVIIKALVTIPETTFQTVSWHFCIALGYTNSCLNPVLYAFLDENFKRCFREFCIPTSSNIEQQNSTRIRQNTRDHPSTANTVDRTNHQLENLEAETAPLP
Procedure, shortened: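 Displacement of 1 nmol/l [3H]-naloxone measured by SPA counting after 90 min at room temperature, using human μ receptor CHO-K1 membrane preparation in Tris-HCl buffer with 0.06% BSA. Test substances at 1 μmol/l give % inhibition; dilution series yield IC50, then Ki (Cheng-Prusoff); non-specific binding with 100 μmol/l naloxone.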

[1] = biological target: T2, serotonin (5-HT) reuptake (Rattus norvegicus, UniProt P31652); assay: Inhibition of serotonin (5HT) reuptake in synaptosomes from rat brain; type: biochemical; settings: test concentration of 10 μM; for inhibition at 10 µM: read-out: 5-HT (inhibition of reuptake of serotonin, % inhibition)
T2 construct: synaptosomes are freshly isolated from areas of the rat brain; from tissue; host or cells: rat brain synaptosomes (P2 fraction)
T2 sequence (P31652 whole entry): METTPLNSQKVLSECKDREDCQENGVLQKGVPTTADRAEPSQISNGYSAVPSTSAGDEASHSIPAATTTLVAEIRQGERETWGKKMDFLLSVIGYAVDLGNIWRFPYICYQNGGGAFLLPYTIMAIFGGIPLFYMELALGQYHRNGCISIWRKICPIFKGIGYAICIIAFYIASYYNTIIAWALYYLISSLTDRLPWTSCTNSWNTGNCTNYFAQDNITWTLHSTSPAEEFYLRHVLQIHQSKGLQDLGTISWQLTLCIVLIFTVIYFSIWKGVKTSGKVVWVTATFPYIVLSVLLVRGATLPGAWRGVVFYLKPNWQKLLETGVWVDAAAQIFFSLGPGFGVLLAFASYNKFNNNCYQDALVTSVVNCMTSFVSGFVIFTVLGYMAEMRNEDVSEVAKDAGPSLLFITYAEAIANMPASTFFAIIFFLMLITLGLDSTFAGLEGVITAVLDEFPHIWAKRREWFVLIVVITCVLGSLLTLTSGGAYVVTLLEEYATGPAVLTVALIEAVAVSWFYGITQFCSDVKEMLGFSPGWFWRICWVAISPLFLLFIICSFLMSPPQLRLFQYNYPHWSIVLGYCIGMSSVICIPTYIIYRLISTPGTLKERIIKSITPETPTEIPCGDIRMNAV
Procedure, shortened: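 Compounds screened at 10 μM and reported as percent inhibition of serotonin uptake. Uptake measured in a freshly prepared P2 synaptosomal fraction from rat brain.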

| Structure (SMILES) | inhibition at 1 µM (human μ opiate receptor) [%] | inhibition at 10 µM [1] [%] | further results |
| --- | --- | --- | --- |
| COc1ccc(S(=O)(=O)N2CCCCC2COCC(=O)NCC2CCC(C(c3ccc(F)cc3)N(C)C)CC2)cc1OC (single isomer, unassigned) [Example 534] |  |  | μ (binding on the μ opioid receptor, % inhibition) (human μ opiate receptor; 1 µM): 24%; 5-HT (inhibition of reuptake of serotonin, % inhibition) ([1]; 10 µM): 88% |
| COc1ccc(S(=O)(=O)N2CCCCC2COCC(=O)NCC2CCC(C(c3ccc(F)cc3)N(C)C)CC2)cc1OC (single isomer, unassigned) [Example 537] |  |  | μ (binding on the μ opioid receptor, % inhibition) (human μ opiate receptor; 1 µM): 35%; 5-HT (inhibition of reuptake of serotonin, % inhibition) ([1]; 10 µM): 92% |
| COc1ccc(S(=O)(=O)N2CCCCC2CCOCC(=O)NC2CCC(C(c3cccs3)N(C)C)CC2)cc1 (stereo not shown) [Example 6, N-(4-((dimethylamino)(thiophen-2-yl)methyl)cyclohexyl)-2-(2-(1-(4-methoxyphenylsulfonyl)piperidin-2-yl)ethoxy)acetamide] | 99 | 91 |  |
| COc1ccc(S(=O)(=O)N2Cc3ccccc3CC2COCC(=O)NCC2CCC(C(c3cccs3)N(C)C)CC2)cc1 (stereo not shown) [Example 7, N-((4-((dimethylamino)(thiophen-2-yl)methyl)cyclohexyl)methyl)-2-((2-(4-methoxyphenylsulfonyl)-1,2,3,4-tetrahydroisoquinolin-3-yl)methoxy)acetamide] | 99 | 92 |  |
| CN(C)C(c1cccs1)C1CCC(CNC(=O)COCCN(C)S(=O)(=O)c2ccc(Cl)cc2Cl)CC1 (stereo not shown) [Example 8, 2-(2-(2,4-dichloro-N-methylphenylsulfonamido)ethoxy)-N-((4-((dimethylamino)(thiophen-2-yl)methyl)cyclohexyl)methyl)acetamide] | 98 | 81 |  |
| Cc1cc(C)c(S(=O)(=O)N(C)CCOCC(=O)NC2CCC(C(c3ccccc3)N(C)C)CC2)c(C)c1 (stereo not shown) [Example 63, N-(4-((dimethylamino)(phenyl)methyl)cyclohexyl)-2-(2-(N,2,4,6-tetramethylphenylsulfamido)ethoxy)acetamide] |  |  | μ (binding on the μ opioid receptor, % inhibition) (human μ opiate receptor): 94%; 5-HT (inhibition of reuptake of serotonin, % inhibition) [1]: 79% |
| CN(C)C(c1cccs1)C1CCC(CCNC(=O)COC2CCN(S(=O)(=O)c3cccc(C(F)(F)F)c3)C2)CC1 (stereo not shown) [Example 96, N-(2-(4-((dimethylamino)(thiophen-2-yl)methyl)cyclohexyl)ethyl)-2-(1-(3-(trifluoromethyl)phenylsulfonyl)pyrrolidin-3-yloxy)acetamide] | 92 | 81 |  |
| CN(C)C(c1cccs1)C1CCC(CNC(=O)COC2CCN(S(=O)(=O)c3ccc(F)cc3)C2)CC1 (stereo not shown) [Example 97, N-((4-((dimethylamino)(thiophen-2-yl)methyl)cyclohexyl)methyl)-2-(1-(4-fluorophenylsulfonyl)pyrrolidin-3-yloxy)acetamide] | 92 | 91 |  |
| COc1cc(C)c(S(=O)(=O)N2CCC(OCC(=O)NC3CCC(C(c4cccs4)N(C)C)CC3)C2)c(C)c1 (stereo not shown) [Example 98, N-(4-((dimethylamino)(thiophen-2-yl)methyl)cyclohexyl)-2-(1-(4-methoxy-2,6-dimethylphenylsulfonyl)pyrrolidin-3-yloxy)acetamide] | 91 | 92 |  |
| CN(C)C(c1cccs1)C1CCC(CCNC(=O)COCCN2CCN(S(=O)(=O)c3ccccc3)CC2)CC1 (stereo not shown) [Example 99, N-(2-(4-((dimethylamino)(thiophen-2-yl)methyl)cyclohexyl)ethyl)-2-(2-(4-(phenylsulfonyl)piperazin-1-yl)ethoxy)acetamide] | 92 | 95 |  |
| CN(C)C(c1cccs1)C1CCC(CCNC(=O)COC2CCCN(S(=O)(=O)c3ccccc3)C2)CC1 (stereo not shown) [Example 100, N-(2-(4-((dimethylamino)(thiophen-2-yl)methyl)cyclohexyl)ethyl)-2-(1-(phenylsulfonyl)piperidin-3-yloxy)acetamide] | 94 | 97 |  |
| CN(C)C(c1cccs1)C1CCC(CNC(=O)COCC2CCCN(S(=O)(=O)c3ccccc3)C2)CC1 (stereo not shown) [Example 101, N-((4-((dimethylamino)(thiophen-2-yl)methyl)cyclohexyl)methyl)-2-((1-(phenylsulfonyl)piperidin-3-yl)methoxy)acetamide] | 92 | 94 |  |
| CN(C)C(c1cccs1)C1CCC(CNC(=O)COCCN(Cc2ccccc2)S(=O)(=O)c2ccccc2)CC1 (stereo not shown) [Example 102, 2-(2-(N-benzylphenylsulfonamido)ethoxy)-N-((4-((dimethylamino)(thiophen-2-yl)methyl)cyclohexyl)methyl)acetamide] | 94 | 92 |  |
| CCN(CCOCC(=O)NCCC1CCC(C(c2cccs2)N(C)C)CC1)S(=O)(=O)c1c(C)cc(OC)c(C)c1C (stereo not shown) [Example 103, N-(2-(4-((dimethylamino)(thiophen-2-yl)methyl)cyclohexyl)ethyl)-2-(2-(N-ethyl-4-methoxy-2,3,6-trimethylphenylsulfonamido)ethoxy)acetamide] | 94 | 95 |  |
| COc1cc(C)c(S(=O)(=O)N2CCC(OCC(=O)NCC3CCC(C(c4cccs4)N(C)C)CC3)CC2)c(C)c1C (stereo not shown) [Example 104, N-((4-((dimethylamino)(thiophen-2-yl)methyl)cyclohexyl)methyl)-2-(1-(4-methoxy-2,3,6-trimethylphenylsulfonyl)piperidin-4-yloxy)acetamide] | 90 | 93 |  |
| COc1ccc(S(=O)(=O)N2CCCC2COCC(=O)NCC2CCC(C(c3cccs3)N(C)C)CC2)cc1 (stereo not shown) [Example 105, N-((4-((dimethylamino)(thiophen-2-yl)methyl)cyclohexyl)methyl)-2-((1-(4-methoxyphenylsulfonyl)pyrrolidin-2-yl)methoxy)acetamide] | 93 | 95 |  |
| COc1ccc(S(=O)(=O)N2CCCCC2COCC(=O)NCC2CCC(C(c3ccccc3)N(C)C)CC2)c(OC)c1 (stereo not shown) [Example 106, 2-((1-(2,4-dimethoxyphenylsulfonyl)piperidin-2-yl)methoxy)-N-((4-((dimethylamino)(phenyl)methyl)cyclohexyl)methyl)acetamide] | 92 | 85 |  |
| COc1ccc(S(=O)(=O)N2CCCCC2COCC(=O)NCCC2CCC(C(c3cccs3)N(C)C)CC2)c(OC)c1 (stereo not shown) [Example 107, 2-((1-(2,4-dimethoxyphenylsulfonyl)piperidin-2-yl)methoxy)-N-(2-(4-((dimethylamino)(thiophen-2-yl)methyl)cyclohexyl)ethyl)acetamide] | 92 | 90 |  |
| CN(C)C(c1ccccc1)C1CCC(CNC(=O)COCCN(C)S(=O)(=O)c2ccc(Cl)cc2)CC1 (stereo not shown) [Example 110, 2-(2-(4-chloro-N-methylphenylsulfonamido)ethoxy)-N-((4-((dimethylamino) (phenyl)methyl)cyclohexyl)methyl)acetamide] | 87 | 94 |  |
| COc1cc(C)c(S(=O)(=O)N(C)CCOCC(=O)NC2CCC(C(c3cccs3)N(C)C)CC2)c(C)c1 (stereo not shown) [Example 111, N-(4-((dimethylamino)(thiophen-2-yl)methyl)cyclohexyl)-2-(2-(4-methoxy-N,2,6-trimethylphenylsulfonamido)ethoxy)acetamide] | 92 | 85 |  |
| CN(C)C(c1ccccc1)C1CCC(CNC(=O)COCCN(C)S(=O)(=O)c2ccc(F)cc2)CC1 (stereo not shown) [Example 112, N-((4-((dimethylamino)(phenyl)methyl)cyclohexyl)methyl)-2-(2-(4-fluoro-N-methylphenylsulfonamido)ethoxy)acetamide] | 82 | 85 |  |
| CN(C)C(c1ccccc1)C1CCC(CNC(=O)COC2CCN(S(=O)(=O)c3cccc(C(F)(F)F)c3)C2)CC1 (stereo not shown) [Example 113, N-((4-((dimethylamino)(phenyl)methyl)cyclohexyl)methyl)-2-(1-(3-(trifluoromethyl)phenylsulfonyl)pyrrolidin-3-yloxy)acetamide] | 90 | 88 |  |
| CN(C)C(c1ccccc1)C1CCC(CNC(=O)COC2CCCN(S(=O)(=O)c3ccccc3)C2)CC1 (stereo not shown) [Example 114, N-((4-((dimethylamino)(phenyl)methyl)cyclohexyl)methyl)-2-(1-(phenylsulfonyl)piperidin-3-yloxy)acetamide] | 85 | 96 |  |
| CN(C)C(c1cccs1)C1CCC(CCNC(=O)COCC2CCCN(S(=O)(=O)c3ccccc3)C2)CC1 (stereo not shown) [Example 115, N-(2-(4-((dimethylamino)(thiophen-2-yl)methyl)cyclohexyl)ethyl)-2-((1-(phenylsulfonyl)piperidin-3-yl)methoxy)acetamide] | 91 | 97 |  |
| CN(C)C(c1cccs1)C1CCC(CCNC(=O)COCCN(Cc2ccccc2)S(=O)(=O)c2ccccc2)CC1 (stereo not shown) [Example 116, 2-(2-(N-benzylphenylsulfonamido)ethoxy)-N-(2-(4-((dimethylamino)(thiophen-2-yl)methyl)cyclohexyl)ethyl)acetamide] | 91 | 97 |  |
| CCN(CCOCC(=O)NCC1CCC(C(c2cccc(F)c2)N(C)C)CC1)S(=O)(=O)c1c(C)cc(OC)c(C)c1C (stereo not shown) [Example 117, N-((4-((dimethylamino)(3-fluorophenyl)methyl)cyclohexyl)methyl)-2-(2-(N-ethyl-4-methoxy-2,3,6-trimethylphenylsulfonamido)ethoxy)acetamide] | 92 | 94 |  |
